# Publication PMC12655529, “Serendipitous Hinge Modulation Hypothetically Reprograms Caerin 1.1-LC Antibacterial Mechanism and Gram-Negative Selectivity” (Pharmaceutics, 2025)
# Ends that are not written are not given here.
# Key:
# [1] = test system: Acinetobacter baumannii ATCC BAA-747; format: cell-based; details: ATCC BAA-747
# [2] = test system: Enterococcus faecalis NCTC 12697; format: cell-based; details: NCTC 12697
# [3] = test system: Escherichia coli ATCC 8739; format: cell-based; details: ATCC 8739
# Method: (§1) The antimicrobial activities of the peptides were evaluated by determining their minimal inhibitory concentration (MIC) and minimal bactericidal concentration (MBC) values following reported protocols [20]. The tested microorganisms included seven Gram-negative bacterial strains (Escherichia coli ATCC 8739, E. coli ATCC-BAA 2340, E. coli NCTC 13846, Klebsiella pneumoniae ATCC 43816, K. pneumoniae ATCC BAA-2342, Pseudomonas aeruginosa ATCC 9027, Acinetobacter baumannii ATCC BAA-747), three Gram-positive bacterial strains (Staphylococcus aureus ATCC 6538, Enterococcus faecalis NCTC 12697, MRSA NCTC 12493, and the fungal strain Candida albicans ATCC 10231. For the assay, each bacterial strain was cultured overnight at 37 °C in 100 mL of medium in a flask. The cultures were then subcultured to reach the logarithmic growth phase and diluted to 5 × 10^5 CFU/mL. Peptide samples were serially diluted two-fold in microplates, with concentrations ranging from 128 μM to 1 μM. The diluted bacterial suspensions were mixed with the peptide solutions and incubated overnight at 37 °C. The MIC values were determined by measuring the absorbance of each well using a Synergy HT plate reader (Agilent, Cheshire, UK). For MBC determination, aliquots from wells showing no visible growth were inoculated onto agar plates to assess bacterial viability. Each experiment was repeated independently three times and conducted in three independent replicates.
# E. coli ATCC BAA-2340 = format: cell-based, Escherichia coli
# horse red blood cells = assay: Haemolysis assay; format: cell-based; details: concentration inducing 10% haemolysis of horse erythrocytes; 4% (v/v) in PBS, 2 h, 37 °C, absorbance 570 nm; no haemolysis at maximum testing concentration (128 μM) recorded as 256 μM
# Method: The peptide cytotoxicity against mammalian erythrocytes was evaluated by haemolysis assay on horse red blood cells (E&O Laboratories Ltd., Falkirk, UK). Fresh horse blood was washed three times with PBS and resuspended to a final concentration of 4% (v/v) in PBS. The diluted blood suspension was then mixed with peptide solutions at varying concentrations and incubated for 2 h at 37 °C. Red blood cell suspensions treated with 0.1% Triton X-100 and PBS were used as controls. The Triton X-100-treated suspension was the positive control (for 100% haemolysis), while the PBS-treated suspension was the blank control. Following incubation, the mixtures were centrifuged at 1000× g for 10 min to separate erythrocytes from the supernatant. The absorbance of the supernatants was detected at 570 nm. The percentage haemolysis was calculated by following the equationPercentage Haemolysis = (AbsSample − AbsBlank)/(AbsPositive − AbsBlank) × 100%
# Gram-positive bacteria = assay: Geometric mean MIC and therapeutic index, Gram-positive; format: cell-based; details: geometric mean of MICs
# [4] = test system: Klebsiella pneumoniae ATCC 43816; format: cell-based; details: ATCC 43816
# Method: as §1
# [5] = test system: Staphylococcus aureus ATCC 6538; format: cell-based; details: ATCC 6538
# MRSA NCTC 12493 = format: cell-based, Staphylococcus aureus
# Method: as §1
# [6] = test system: Pseudomonas aeruginosa ATCC 9027; format: cell-based
# [7] = test system: K. pneumoniae ATCC BAA-2342; format: cell-based, Klebsiella pneumoniae
# E. coli NCTC 13846 = format: cell-based, Escherichia coli
# Method: as §1
# E. coli (ATCC-BAA 2340) = format: cell-based, Escherichia coli; details: ATCC-BAA 2340
# Method: The peptide sensitivity was determined in different salt- and serum-containing environments. Bacterial strains were prepared following the MIC detection protocol described previously. To evaluate peptide sensitivity under physiological conditions, various concentrations of salt ions (150 mM NaCl, 4.5 mM KCl, 2 mM CaCl2, 1 mM MgCl2, 8 µM ZnCl2, 6 µM NH4Cl, or 4 µM FeCl3) and serum (10% FBS) were prepared in McCartney bottles prior to the addition of bacterial suspensions. The subcultured bacterial suspensions were then introduced to these modified media conditions. For MIC determination, the treated bacterial suspensions were diluted and dispensed into 96-well plates containing peptide solutions at graded concentrations. This assay allowed for the detection of potential alterations in MIC values, serving as an indicator of peptide sensitivity under different physiological conditions. All experiments were independently repeated three times, each with three replicates.
Substance,"MBC, A. baumannii (ATCC BAA-747) [1]","MIC, A. baumannii (ATCC BAA-747) [1]","MBC, E. faecalis (NCTC 12697) [2]","MIC, E. faecalis (NCTC 12697) [2]","MBC, E. coli (ATCC 8739) [3]","MIC, E. coli (ATCC 8739) [3]","MBC, E. coli (ATCC BAA-2340) (E. coli ATCC BAA-2340)","MIC, E. coli (ATCC BAA-2340) (E. coli ATCC BAA-2340)",HC10 (horse red blood cells),GM MIC Gram-Positive (Gram-positive bacteria),"MBC, K. pneumoniae (ATCC 43816) [4]","MIC, K. pneumoniae (ATCC 43816) [4]","MBC, S. aureus (ATCC 6538) [5]","MIC, S. aureus (ATCC 6538) [5]","MBC, MRSA (NCTC 12493) (MRSA NCTC 12493)","MIC, MRSA (NCTC 12493) (MRSA NCTC 12493)","MBC, P. aeruginosa (ATCC 9027) [6]","MIC, P. aeruginosa (ATCC 9027) [6]","MBC, K. pneumoniae (ATCC BAA-2342) [7]","MIC, K. pneumoniae (ATCC BAA-2342) [7]",further results
GLLSVLGSLKLIVPKVVPLIAEKL-NH2 [Caerin 1.1-LC PKVVP],32 µM,32 µM,>128 µM,>128 µM,8 µM,4 µM,4 µM,2 µM,25.8 µM,12.14 µM,32 µM,16 µM,32 µM,16 µM,8 µM,8 µM,32 µM,8 µM,32 µM,8 µM,"MBC, E. coli (NCTC 13846) (E. coli NCTC 13846): 4 µM; MIC, E. coli (NCTC 13846) (E. coli NCTC 13846): 2 µM"
GLLSVLKSLKKIVPHVVPKIAEKL-NH2 [Caerin 1.1-LC 7.11.19K],8 µM,4 µM,128 µM,128 µM,2 µM,2 µM,2 µM,2 µM,46.5 µM,3.28 µM,4 µM,4 µM,4 µM,4 µM,8 µM,8 µM,4/4 µM,4/4 µM,4 µM,4 µM,"MIC, Ca^2+ (E. coli (ATCC-BAA 2340)): 64 µM; MIC, Control (E. coli (ATCC-BAA 2340)): 2 µM; MIC, FBS (E. coli (ATCC-BAA 2340)): 16 µM; MIC, Fe^3+ (E. coli (ATCC-BAA 2340)): 2 µM; MIC, K^+ (E. coli (ATCC-BAA 2340)): 2 µM; MIC, Mg^2+ (E. coli (ATCC-BAA 2340)): 4 µM; MIC, NH4^+ (E. coli (ATCC-BAA 2340)): 2 µM; MIC, Na^+ (E. coli (ATCC-BAA 2340)): 2 µM; MBC, E. coli (NCTC 13846) (E. coli NCTC 13846): 4 µM; MIC, E. coli (NCTC 13846) (E. coli NCTC 13846): 4 µM"
GLLSVLGSLKLIVPHIIPLIAEKL-NH2 [Caerin 1.1-LC PHIIP],8 µM,8 µM,>128 µM,>128 µM,8 µM,4 µM,8 µM,4 µM,2.4 µM,8 µM,16 µM,16 µM,8 µM,4 µM,4 µM,4 µM,64 µM,32 µM,16 µM,8 µM,"MBC, E. coli (NCTC 13846) (E. coli NCTC 13846): 8 µM; MIC, E. coli (NCTC 13846) (E. coli NCTC 13846): 4 µM"
GLLSVLGSLKKWVPHVVPLIAKKL-NH2 [Caerin 1.1-LC 11K.12K.12W],4 µM,4 µM,32 µM,32 µM,2 µM,2 µM,4 µM,2 µM,8.5 µM,2 µM,4 µM,2 µM,2 µM,1 µM,16 µM,1 µM,4 µM,2 µM,8 µM,8 µM,"MIC, Ca^2+ (E. coli (ATCC-BAA 2340)): 32 µM; MIC, Control (E. coli (ATCC-BAA 2340)): 4 µM; MIC, FBS (E. coli (ATCC-BAA 2340)): 8 µM; MIC, Fe^3+ (E. coli (ATCC-BAA 2340)): 4 µM; MIC, K^+ (E. coli (ATCC-BAA 2340)): 4 µM; MIC, Mg^2+ (E. coli (ATCC-BAA 2340)): 8 µM; MIC, NH4^+ (E. coli (ATCC-BAA 2340)): 4 µM; MIC, Na^+ (E. coli (ATCC-BAA 2340)): 4 µM; MBC, E. coli (NCTC 13846) (E. coli NCTC 13846): 4 µM; MIC, E. coli (NCTC 13846) (E. coli NCTC 13846): 2 µM"
GLLSVLGSLKLIVPRVVPLIAEKL-NH2 [Caerin 1.1-LC PRVVP],32 µM,32 µM,>128 µM,>128 µM,8 µM,2 µM,4 µM,2 µM,25.8 µM,5.94 µM,16 µM,8 µM,16 µM,8 µM,8 µM,4 µM,8/8 µM,8/8 µM,32 µM,8 µM,"MBC, E. coli (NCTC 13846) (E. coli NCTC 13846): 16 µM; MIC, E. coli (NCTC 13846) (E. coli NCTC 13846): 4 µM"
